# Tested on: not listed separately
# Test: log P by HPLC on a reversed-phase column (C 18), EEC Directive 79/831 Annex V.A8
# Type: physicochemical
# Conditions: HPLC reversed-phase C 18, 40° C., 0.1% aqueous formic acid and acetonitrile, gradient 10% to 90% acetonitrile
# Experimental: In table 1, the log P values were determined in accordance with EEC Directive 79/831 Annex V.A8 by HPLC (High Performance Liquid Chromatography) on a reversed-phase column (C 18), using the method described below: Temperature: 40° C.; Mobile phases: 0.1% aqueous formic acid and acetonitrile; linear gradient from 10% acetonitrile to 90% acetonitrile. Calibration was carried out using unbranched alkan-2-ones (comprising 3 to 16 carbon atoms) with known log P values (determination of the log P values by the retention times using linear interpolation between two successive alkanones). lambda-max-values were determined using UV-spectra from 200 nm to 400 nm and the peak values of the chromatographic signals.
row,logP,SMILES
1,3.02,COCC1(c2ccc(C)cc2CN(C(=O)c2c(C)nn(C)c2F)C2CC2)CC1 [Example 1.156]

# Same assay, conditions: HPLC, reversed-phase column (C 18), 40° C.; 0.1% aqueous formic acid and acetonitrile, linear gradient 10% to 90% acetonitrile
row,logP,SMILES
1,4.61,CCCC1(c2ccc(C)cc2CN(C(=O)c2c(C)nn(C)c2F)C2CC2)CC1 [I.113]
2,5.34,CCC1(c2cc(Cl)ccc2CN(C(=O)c2cc(C)oc2C)C2CC2)CC1 [Example 1.071]
3,4.23,CCC1(c2ccc(Cl)cc2CN(C(=O)c2c(C)nn(C)c2F)C2CC2)CC1 [Example 1.087]
4,4.80,Cc1ccc(C2(C(C)C)CC2)c(CN(C(=O)c2c(C)nn(C)c2Cl)C2CC2)c1 [Example 1.119]
5,3.31,C#CC1(c2ccc(C)cc2CN(C(=O)c2cn(C)nc2C(F)F)C2CC2)CC1 [Example 1.064]
6,4.37,CCC1(c2ccccc2CN(C(=S)c2cn(C)nc2C(F)F)C2CC2)CC1 [Example 1.068]
7,5.65,Cc1cc(C(=S)N(Cc2ccc(Cl)cc2C2(C)CC2)C2CC2)c(C)o1 [Example 1.012]
8,5.25,CCC1(c2cc(C)c(F)cc2CN(C(=O)c2cc(C)oc2C(F)F)C2CC2)CC1 [Example 1.080]
9,4.36,CCC1(c2ccc(C)cc2CN(C(=O)c2c(C)nn(C)c2Cl)C2CC2)CC1 [Example 1.096]
10,4.06,Cc1c(C(=O)N(Cc2cc(Cl)ccc2C2(C)CC2)C2CC2)c(C(F)F)nn1C [Example 1.030]
11,3.76,Cc1ccc(C2(C(F)F)CC2)c(CN(C(=S)c2cn(C)nc2C(F)F)C2CC2)c1 [Example 1.140]
12,4.34,CCC1(c2ccc(C(F)(F)F)cc2CN(C(=O)c2c(C)nn(C)c2F)C2CC2)CC1 [Example 1.084]
13,4.98,Cc1cc(C(=O)N(Cc2ccc(Cl)cc2C2(C)CC2)C2CC2)c(C(F)F)o1 [Example 1.008]

# Tested on: Phakopsora pachyrhizi
# Test: In vivo preventive test on Phakopsora pachyrhizi (soybean rust)
# Conditions: Table C1, dose 10 ppm
# Experimental: Example C: In Vivo Preventive Test on Phakopsora pachyrhizi (Soybean Rust)
# Solvent: 24.5 parts by weight of acetone • 24.5 parts by weight of N,N-dimethylacetamide
# Emulsifier: 1 part by weight of alkylaryl polyglycol ether
# To produce a suitable preparation of active compound, 1 part by weight of active compound is mixed with the stated amounts of solvent and emulsifier, and the concentrate is diluted with water to the desired concentration.
# To test for preventive activity, young plants are sprayed with the preparation of active compound at the stated rate of application. After the spray coating has dried on, the plants are inoculated with an aqueous spore suspension of the causal agent of soybean rust (Phakopsora pachyrhizi) and stay for 24 h without light in an incubation cabinet at approximately 24° C. and a relative atmospheric humidity of 95%.
# The plants remain in the incubation cabinet at approximately 24° C. and a relative atmospheric humidity of approximately 80% and a day/night interval of 12 h. The test is evaluated 7 days after the inoculation. 0% means an efficacy which corresponds to that of the untreated control, while an efficacy of 100% means that no disease is observed.
row,SMILES,Efficacy
1,"Cn1nc(C(F)F)c(C(=O)N(Cc2cc(F)ccc2C2CC2)C2CC2)c1F [123 from WO-2010/130767, N-cyclopropyl-N-(2-cyclopropyl-5-fluorobenzyl)-3-(difluoromethyl)-5-fluoro-1-methyl-1H-pyrazole-4-carboxamide, reference compound]",0/23
2,Cc1ccc(C2(C)CC2)c(CN(C(=O)c2c(C)nn(C)c2F)C2CC2)c1 [I.040],99%
3,CCCC1(c2ccc(C)cc2CN(C(=O)c2c(C)nn(C)c2F)C2CC2)CC1 [I.113],85%
4,"Cn1nc(C(F)F)c(C(=O)N(Cc2ccccc2C2CC2)C2CC2)c1F [47 from WO-2010/130767, N-cyclopropyl-N-(2-cyclopropylbenzyl)-3-(difluoromethyl)-5-fluoro-1-methyl-1H-pyrazole-4-carboxamide, reference compound]",0%

# Same assay, conditions: Table C2, dose 10 ppm
row,SMILES,Efficacy [%]
1,CCC1(c2ccc(Cl)cc2CN(C(=O)c2c(C)nn(C)c2F)C2CC2)CC1 [I.087],79

# Same assay, conditions: dose of ppm of active ingredient (number not given); comparison with WO-2010/130767, text
row,SMILES,protection
1,CCC1(c2ccc(Cl)cc2CN(C(=O)c2c(C)nn(C)c2F)C2CC2)CC1 [I.087],at least 70%
2,"Cn1nc(C(F)F)c(C(=O)N(Cc2cc(Cl)ccc2C2CC2)C2CC2)c1F [41 from WO-2010/130767, N-(5-chloro-2-cyclopropylbenzyl)-N-cyclopropyl-3-(difluoromethyl)-5-fluoro-1-methyl-1H-pyrazole-4-carboxamide, reference compound]",no protection

# From patent US10071967B2, “N-cycloalkyl-N-{[2-(1-substitutedcycloalkyl)phenyl]methylene}-(thio)carboxamide derivatives” (BAYER CROPSCIENCE AKTIENGESELLSCHAFT, priority 2013, dated 2018)
